Results: patent US20180319786A1, “INHIBITOR OF THE P2X7 RECEPTOR” (H. Lundbeck A/S, priority 2015, published 2018)

Columns and labels:
[1] = target: T1, human P2X7 receptors (Homo sapiens, UniProt Q99572); test: P2X7 FLIPR assay; type: cell-based; details: Human P2X7 in HEK293 cells, BzATP 8 μM, Ca2+ mobilization
T1 construct: expressed in transfected cells; host or cells: HEK293
T1 sequence (Q99572 1-595): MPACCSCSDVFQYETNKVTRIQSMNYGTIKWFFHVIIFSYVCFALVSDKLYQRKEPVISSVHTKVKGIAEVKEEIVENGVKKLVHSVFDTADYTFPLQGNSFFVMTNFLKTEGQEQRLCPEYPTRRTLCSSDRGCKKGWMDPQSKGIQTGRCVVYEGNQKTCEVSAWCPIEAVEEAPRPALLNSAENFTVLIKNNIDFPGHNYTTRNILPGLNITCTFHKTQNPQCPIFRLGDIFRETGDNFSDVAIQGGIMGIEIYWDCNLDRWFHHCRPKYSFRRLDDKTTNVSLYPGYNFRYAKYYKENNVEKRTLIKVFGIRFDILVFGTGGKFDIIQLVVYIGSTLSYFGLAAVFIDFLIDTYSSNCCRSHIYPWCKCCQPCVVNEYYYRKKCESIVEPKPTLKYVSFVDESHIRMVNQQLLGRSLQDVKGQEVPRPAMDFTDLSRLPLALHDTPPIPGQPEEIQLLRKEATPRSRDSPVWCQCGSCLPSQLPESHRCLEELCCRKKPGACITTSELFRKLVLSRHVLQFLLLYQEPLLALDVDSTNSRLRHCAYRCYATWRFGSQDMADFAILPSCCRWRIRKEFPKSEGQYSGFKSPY
Method: HEK293 cells stably expressing either human, mouse, or rat P2X7 receptors were plated in 384-well poly-D-lysine-coated black FLIPR plates (Greiner One, Cat #781946) using 1.5% FBS media 24 hours before the assay. Sucrose buffer, pH 7.4 was used for the human-P2X7 assay (5 mM of potassium chloride, 9.6 mM NaH2PO4.2H2O, 25 mM Hepes, 0.5 mM CaCl2, 5 mM glucose, 280 mM sucrose and 1.0 mM probenecid (Sigma, St. Louis, Mo.)). Hank's balanced salt solution buffer, pH 7.4 was used for the rat-P2X7 assay (1×HBSS buffer supplemented with 20 mM Hepes plus 2.5 mM probenecid (Sigma, St. Louis, Mo.) and 0.05% bovine serum albumin After removing the media, the plates were loaded with 30 μL of Fluo-4 NW (Molecular Probes, F36206), and were incubated at 37° C. for 30 min in a humidified chamber (5% CO2/95% air), and for 30 min at RT. Mobilization of intracellular Ca^+2 in response to different ligands was measured online using the FLIPR Tetra reader. In the assay, baseline fluorescence was measured for 15 seconds, then 15 μL of 4× compounds (40 μM) was added, fluorescence was monitored for 3 min for agonist activity, 15 μL of 4×BzATP (hP2X7 1×8 μM, rP2X7 1×15 μM) was added and after a 30 min incubation at room temperature the fluorescence was read for 3 min for IC50 determination.

[2] = tested on: CFA inflamed rats; test: CFA-induced inflammatory hyperalgesia (paw pressure threshold); type: in vivo, rat
Method: (§1) Male Sprague Dawley rats (Charles River, Germany) weighing 250-300 g on the day of gabapentin administration were used (n=8-10 per group). The animals were housed in Macrolon III cages (20×14×18 cm or 20×40×18 cm; in groups of 3-5 per cage according to weight) containing wood-chip bedding material (3×1×4 mm) in an air-conditioned building with controlled environmental parameters (relative humidity 55±15%, temperature 20±2° C., and light from 06.00 to 19.00 h). Food and water were available ad libitum. The rats were allowed to habituate to the housing facilities for at least one week prior to being assigned to behavioral experiments whereupon they were randomly distributed across treatment groups. All experiments were performed according to the Ethical Guidelines of the International Association for the Study of Pain and the Danish Committee for Experiments on Animals.
Individual rats received a subcutaneous injection of CFA (50% in saline, 100 μl total volume, Sigma Aldrich) into the plantar surface of the hindpaw. All rats were then immediately returned to their homecage. The day prior to this (pre-CFA baseline response), and then again 24 h post CFA injection (post-CFA baseline response), hindpaw paw pressure thresholds were measured to obtain an index of evoked mechanical hyperalgesia [Ref: Munro, G., et al., Neuropharmacology, 2011. 61(1-2): p. 121-132.1. To do this, the investigator gently restrained the rat prior to the application of progressively increasing mechanical pressure to the mid hindpaw region using an electronic version of the Randall-Selitto device (HTC, U.S.A.) The point at which the rat attempted to make a reflex hindpaw withdrawal which in some instances was followed by vocalization was recorded as the paw pressure threshold (g). […] Thereafter, CFA inflamed rats received oral administration of (S)-N-(2-(4-chlorophenyl)-2-morpholinoethyl)-2-(pyrimidin-2-yl)-4-(trifluoromethyl)thiazole-5-carboxamide or vehicle with the investigator blinded to treatment and the paw pressure threshold measured again 60 minutes later.

[3] = tested on: SNI rats; test: SNI model of neuropathic pain (von Frey mechanical allodynia); type: in vivo, rat; details: for reversal of mechanical hypersensitivity: SNI rats 3-4 weeks post injury
Method: as §1
A spared nerve injury (SNI) was performed in rats (body weight 180-220 g at the time of surgery) as described previously [Decosterd, I. and C. J. Woolf, Pain, 2000. 87(2): p. 149-581. Anaesthesia was induced and maintained by 2% isoflurane (Baxter A/S, Alleroed, Denmark), combined with oxygen (30%) and nitrous oxide (68%). Next, the skin of the lateral left thigh was incised and the cranial and caudal parts of the biceps femoris muscle were separated and held apart by a retractor to expose the sciatic nerve and its three terminal branches: the sural, common peroneal and tibial nerves. The tibial and common peroneal nerves were tightly ligated with 4/0 silk and 2-3 mm of the nerve distal to the ligation was removed. Any stretching or contact with the intact sural nerve was avoided. […] The presence of mechanical allodynia was assessed using a series of calibrated von Frey hairs (lower limit=0.06 and upper limit=13.5 g, Stoelting Co, Wood Dale Ill.), which were applied to the lateral aspect of the plantar surface of the hindpaw with increasing force until an individual filament used just started to bend. […]

[4] = tested on: CCI animals; test: Chronic constrictive injury (CCI) model of neuropathic pain (von Frey PWT); type: in vivo, rat; details: 100 mg/kg, PWT 120 minutes following administration, p<0.05
Method: Male Sprague Dawley rats (Harlan) were used in the study. Upon receipt, rats were group housed with 2-3 per cage in standard cages. Rats were allowed to acclimate for up to 1 week prior to surgery. All rats were examined and weighed prior to initiation of the study to assure adequate health and suitability. During the course of the study, 12/12 light/dark cycles were maintained. The room temperature was maintained between 20° C. and 23° C. with a relative humidity maintained around 50%. Chow and water were provided ad libitum for the duration of the study. All testing was performed during the animals' light cycle phase. Rats were single housed after surgery.
This surgery was performed according to Bennett and Xie (1988). […] Each rat was monitored until awake and moving freely around the recovery chamber. […]
Paw withdrawal from a mechanical stimulus was measured by applying von Frey filaments of ascending bending force to the plantar surface of the hind paws (ipsilateral and contralateral). Baseline and post-treatment withdrawal threshold values for non-noxious mechanical sensitivity were evaluated using von Frey filaments (Semmes-Weinstein filaments, Stoelting, Wood Dale, Ill., USA) of varying stiffness (0.4, 0.7, 1.2, 2.0, 3.6, 5.5, 8.5, 10, 15, 26 g). […]
Data were analyzed by Analysis of variance (ANOVA), followed by post-hoc comparisons when appropriate. […]

O=C(NCC(c1ccc(Cl)cc1)N1CCOCC1)c1sc(-c2ncccn2)nc1C(F)(F)F (racemic) [Compound (III), (±)-N-(2-(4-chlorophenyl)-2-morpholinoethyl)-2-(pyrimidin-2-yl)-4-(trifluoromethyl)thiazole-5-carboxamide]
IC50 [1]: 32 ± 13 nM

O=C(NC[C@H](c1ccc(Cl)cc1)N1CCOCC1)c1sc(-c2ncccn2)nc1C(F)(F)F [Compound (I), (S)-N-(2-(4-chlorophenyl)-2-morpholinoethyl)-2-(pyrimidin-2-yl)-4-(trifluoromethyl)thiazole-5-carboxamide]
IC50 [1]: 12 ± 10 nM | reversal of mechanical hyperalgesia ([2]; 30 mg/kg dose, oral, paw pressure threshold 60 minutes later, 24 h post CFA): 62 % reversal | effect on mechanical hyperalgesia ([2]; oral, F(4.49)=30.692, P<0.001): significantly reversed | reversal of mechanical hypersensitivity ([3]; 30 and 100 mg/kg tested, dose of this value not stated): 108 % reversal | effect on mechanical hypersensitivity ([3]; 30 and 100 mg/kg, F(3.47)=12.522, P<0.001): dose dependently reversed | PWT compared to vehicle treatment [4]: significantly increased

O=C(NC[C@@H](c1ccc(Cl)cc1)N1CCOCC1)c1sc(-c2ncccn2)nc1C(F)(F)F [Compound (II), (R)-N-(2-(4-chlorophenyl)-2-morpholinoethyl)-2-(pyrimidin-2-yl)-4-(trifluoromethyl)thiazole-5-carboxamide]
IC50 [1]: 89 ± 13 nM

O=C(O)Cc1ccccc1Nc1c(Cl)cccc1Cl [diclofenac, reference compound]
reversal of mechanical hyperalgesia ([2]; NSAID comparator, dose not given): 84 % reversal

NCC1(CC(=O)O)CCCCC1 [gabapentin, reference compound]
reversal of mechanical hypersensitivity ([3]; 100 mg/kg dose): 132 % reversal | PWT compared to vehicle treatment [4]: significantly increased
